Measurements published in ChEMBL document CHEMBL5608215, “Development of amphipathic derivatives of thymol and carvacrol as potent broad-spectrum antibacterial agents” (Eur J Med Chem, 2024).
The source made the active and inactive calls. The calls are words filed in the database; no cut-off is given here.

Experiments:
[1] = tested on: Staphylococcus aureus; assay: Antibacterial activity against Staphylococcus aureus ATCC29213 infected in mouse model assessed as reduction in inflammatory factors in skin at 5 to 10 mg/kg, sc measured after 24 hrs by H and E staining based analysis; assay type: functional, organism-based; conditions: dose 5-10 mg/kg
[2] = Toxicity in KM mouse assessed as histopathological abnormality in heart upto 40 mg/kg, ip measured for 24 hrs by H and E staining based analysis; assay type: organism-based; conditions: in vivo
[3] = tested on: Enterococcus; assay: Antibacterial activity against vancomycin-resistant Enterococcus ATCC51299 by CLSI based serial dilution method; assay type: functional
[4] = tested on: Staphylococcus aureus; assay: Antibacterial activity against Staphylococcus aureus ATCC29213 infected in mouse model assessed as bacterial concentration at 10 mg/kg, sc measured after 24 hrs (reference value: 10^10.13 CFU/g); assay type: functional
[5] = Toxicity in KM mouse assessed as histopathological abnormality in kidney upto 40 mg/kg, ip measured for 24 hrs by H and E staining based analysis; assay type: organism-based; conditions: in vivo
[6] = tested on: Staphylococcus aureus; assay: Antibacterial activity against Staphylococcus aureus ATCC29213 infected in mouse model assessed as normalization of skin cell morphology at 5 to 10 mg/kg, sc measured after 24 hrs by H and E staining based analysis; assay type: functional, organism-based; conditions: dose 5-10 mg/kg
[7] = Selectivity ratio of cytotoxicity against HUVEC cells for to MIC for Staphylococcus aureus ATCC29213; assay type: toxicity, cell-based; conditions: human
[8] = Toxicity in KM mouse assessed as histopathological abnormality in liver upto 40 mg/kg, ip measured for 24 hrs by H and E staining based analysis; assay type: organism-based; conditions: in vivo
[9] = tested on: Staphylococcus aureus; assay: Bactericidal activity against Staphylococcus aureus ATCC29213 assessed as log reduction in bacterial growth at 8 times MIC incubated for 24 hrs by time-kill assay; assay type: functional
[10] = Hemolytic activity against rabbit RBC incubated for 1 hr by absorbance based assay; assay type: toxicity, cell-based, Oryctolagus cuniculus, Erythrocyte; conditions: rabbit red blood cells (erythrocytes)
[11] = tested on: Pseudomonas aeruginosa; assay: Anti-biofilm activity against Pseudomonas aeruginosa ATCC27853 assessed as biofilm formation rate at 8 times MIC incubated for 48 hrs by crystal violet staining based analysis relative to control; assay type: functional
[12] = tested on: Staphylococcus aureus; assay: Antibacterial activity against Staphylococcus aureus ATCC29213 infected in mouse model assessed as uniform smooth skin at 5 to 10 mg/kg, sc measured after 24 hrs; assay type: functional, organism-based; conditions: dose 5-10 mg/kg
[13] = tested on: Staphylococcus aureus; assay: Antibacterial activity against Staphylococcus aureus ATCC25923 upto 32 ug/ml incubated for 16 to 18 hrs in presence of phosphatidylethanolamine; assay type: functional, organism-based; conditions: dose <= 32.0 µg/ml, time 16-18 hrs
[14] = tested on: Staphylococcus aureus; assay: Antibacterial activity against Staphylococcus aureus ATCC29213 infected in mouse model assessed as bacterial concentration at 5 mg/kg, sc measured after 24 hrs (reference value: 10^10.13 CFU/g); assay type: functional
[15] = tested on: Enterococcus faecalis; assay: Antibacterial activity against Enterococcus faecalis ATCC29212 assessed as leakage of cell contents at 8 times MIC by SEM analysis; assay type: functional, organism-based
[16] = tested on: Staphylococcus aureus; assay: Antibacterial activity against Staphylococcus aureus ATCC25923 upto 32 ug/ml incubated for 16 to 18 hrs in presence of phosphatidylglycerol; assay type: functional, organism-based; conditions: dose <= 32.0 µg/ml, time 16-18 hrs
[17] = tested on: Escherichia coli; assay: Bactericidal activity against Escherichia coli ATCC25922 incubated upto 24 hrs by time-kill assay; assay type: functional, organism-based
[18] = tested on: Staphylococcus aureus; assay: Antibacterial activity against Staphylococcus aureus ATCC29213 assessed as leakage of cell contents at 8 times MIC by SEM analysis; assay type: functional, organism-based
[19] = tested on: Staphylococcus aureus; assay: Antibacterial activity against Staphylococcus aureus ATCC29213 assessed as cell membrane damage at 8 times MIC by NucGreen/EthD-III staining based analysis; assay type: functional, organism-based
[20] = tested on: Staphylococcus aureus; assay: Antibacterial activity against Staphylococcus aureus ATCC29213 infected in mouse model assessed as bacterial load in abscesses at 5 mg/kg, sc measured after 24 hrs; assay type: functional
[21] = tested on: Escherichia coli; assay: Antibacterial activity against Escherichia coli ATCC25922 in plasma pretreated plasma with compound for 6 hrs followed by bacterial infection into plasma; assay type: functional, organism-based
[22] = tested on: Staphylococcus aureus; assay: Antibacterial activity against Staphylococcus aureus ATCC29213 infected in mouse model assessed as bacterial load reduction in abscesses at 5 mg/kg, sc measured after 24 hrs relative to control; assay type: functional; set-up: scale not given: the % may be the effect or the level left
[23] = Selectivity index, ratio of HC50 against rabbit RBC for to MIC for Escherichia coli ATCC25922; assay type: toxicity; conditions: rabbit red blood cells, pooled result: one value given for 6 cell lines, strains, targets or settings, read-out: Selectivity Index
[24] = tested on: Staphylococcus aureus; assay: Antibacterial activity against Staphylococcus aureus ATCC29213 infected in mouse model assessed as bacterial load in abscesses at 10 mg/kg, sc measured after 24 hrs; assay type: functional
[25] = Toxicity in KM mouse assessed as damage in spleen upto 40 mg/kg, ip measured for 24 hrs by H and E staining based analysis; assay type: organism-based; conditions: in vivo
[26] = tested on: Staphylococcus aureus; assay: Antibacterial activity against Staphylococcus aureus ATCC29213 by CLSI based serial dilution method; assay type: functional
[27] = Toxicity in KM mouse assessed as histopathological abnormality in spleen upto 40 mg/kg, ip measured for 24 hrs by H and E staining based analysis; assay type: organism-based; conditions: in vivo
[28] = tested on: Staphylococcus aureus; assay: Antibacterial activity against Staphylococcus aureus ATCC25923 upto 32 ug/ml incubated for 16 to 18 hrs in presence of cardiolipin; assay type: functional, organism-based; conditions: dose <= 32.0 µg/ml, time 16-18 hrs
[29] = tested on: Enterococcus faecalis; assay: Antibacterial activity against Enterococcus faecalis ATCC29212 by CLSI based serial dilution method; assay type: functional
[30] = Toxicity in KM mouse assessed as damage in kidney upto 40 mg/kg, ip measured for 24 hrs by H and E staining based analysis; assay type: organism-based; conditions: in vivo
[31] = tested on: Staphylococcus aureus; assay: Antibacterial activity against methicillin-resistant Staphylococcus aureus 21-5 by CLSI based serial dilution method; assay type: functional
[32] = tested on: Staphylococcus aureus; assay: Inhibition of antibiotic-resistance in Staphylococcus aureus ATCC29213 at 0.5 times of MIC incubated for 20 days; assay type: functional; conditions: time 20.0 day
[33] = Cytotoxicity against HUVEC cells assessed as cell viability at 32 ug/ml incubated for 24 hrs by CCK8 assay relative to control; assay type: toxicity, cell-based; conditions: human, at 32 µg/mL, read-out: Activity
[34] = Toxicity in KM mouse assessed as damage in lung upto 40 mg/kg, ip measured for 24 hrs by H and E staining based analysis; assay type: organism-based; conditions: in vivo
[35] = tested on: Staphylococcus aureus; assay: Antibacterial activity against Staphylococcus aureus ATCC29213 in plasma pretreated plasma with compound for 6 hrs followed by bacterial infection into plasma; assay type: functional, organism-based
[36] = tested on: Escherichia coli; assay: Bactericidal activity against Escherichia coli ATCC25922 at MIC incubated for 24 hrs by time-kill assay relative to control; assay type: functional
[37] = Toxicity in KM mouse assessed as damage in liver upto 40 mg/kg, ip measured for 24 hrs by H and E staining based analysis; assay type: organism-based; conditions: in vivo
[38] = tested on: Staphylococcus aureus; assay: Antibacterial activity against Staphylococcus aureus ATCC29213 assessed as cell membrane damage incubated for 8 mins by SYTOX Green uptake assay; assay type: functional, organism-based
[39] = tested on: Staphylococcus aureus; assay: Antibacterial activity against Staphylococcus aureus ATCC29213 infected in mouse model assessed as bacterial load reduction in abscesses at 10 mg/kg, sc measured after 24 hrs relative to control; assay type: functional; set-up: scale not given: the % may be the effect or the level left
[40] = tested on: Enterococcus faecalis; assay: Antibacterial activity against Enterococcus faecalis ATCC29212 assessed as cell surface disruption at 8 times MIC by SEM analysis; assay type: functional, organism-based
[41] = Toxicity in KM mouse assessed as normal condition upto 40 mg/kg, ip measured for 24 hrs; assay type: organism-based; conditions: in vivo

## CCCCCCCNC(=O)C[N+](C)(C)CCCCOc1cc(C)ccc1C(C)C.[Br-]
[1]
  Activity: Active
[2]
  Activity: Non-Toxic
[3]
  MIC: 2 mg/L
[4]
  Activity: ~1 10^7.67CFU/g
[5]
  Activity: Non-Toxic
[6]
  Activity: Active
[7]
  selectivity ratio: 64
[8]
  Activity: Non-Toxic
[9]
  Activity: >3 log10CFU/ml
[10]
  HC50 at 1 h: 472 µg/mL
[11]
  Activity: 22.3%
[12]
  Activity: Active
[13]
  Activity: inactive
[14]
  Activity: ~1 10^7.99CFU/g
[15]
  Activity: Active
[16]
  Activity: inactive
[17]
  Activity: Dose-Dependent Effect
[18]
  Activity: Active
[19]
  Activity: Active
[20]
  Activity: 2.14 log10CFU/g
[21]
  Activity: Active
[22]
  Activity: 99.27%
[23]
  selectivity ratio: 59
[24]
  Activity: 2.46 log10CFU/g
[25]
  Activity: Non-Toxic
[26]
  MIC: 0.5 mg/L
[27]
  Activity: Non-Toxic
[28]
  Activity: inactive
[29]
  MIC: 1 mg/L
[30]
  Activity: Non-Toxic
[31]
  MIC: 4 mg/L
[32]
  inhibition: Active
[33]
  viability at 24 h, 32 ug/ml: 68.7%
[34]
  Activity: Non-Toxic
[35]
  Activity: Active
[36]
  Activity: 100%
[37]
  Activity: Non-Toxic
[38]
  Activity: Dose-Dependent Effect
[39]
  Activity: 99.65%
[40]
  Activity: Active
[41]
  Activity: Non-Toxic
